Literature values in patent US20030018166A1 (priority 2000, published 2003).
Like-named read-outs stand apart in the source and are kept apart here.

Biological target: T1, M. avium ICL (UniProt P9WKK7)
T1 construct: The proteins were purified by the 6His-tag attached to the N terminus; fused on or other part: N-terminal 6His tag
T1 sequence (P9WKK7 1-428): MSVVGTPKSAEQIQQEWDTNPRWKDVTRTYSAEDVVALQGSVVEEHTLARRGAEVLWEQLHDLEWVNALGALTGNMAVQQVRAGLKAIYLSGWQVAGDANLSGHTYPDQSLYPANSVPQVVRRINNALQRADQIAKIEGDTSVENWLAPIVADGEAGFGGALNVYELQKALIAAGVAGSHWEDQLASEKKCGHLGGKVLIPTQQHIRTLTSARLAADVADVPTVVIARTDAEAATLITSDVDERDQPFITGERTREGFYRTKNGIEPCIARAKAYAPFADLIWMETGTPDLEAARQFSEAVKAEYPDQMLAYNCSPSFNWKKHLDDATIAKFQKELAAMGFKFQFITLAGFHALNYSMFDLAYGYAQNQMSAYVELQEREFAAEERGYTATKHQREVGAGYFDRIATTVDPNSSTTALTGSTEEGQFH
Conditions: Schloss and Cleland, 1982, cited from earlier work

Structure (SMILES)	Ki [µM]	Ki (read-out: Ki) [µM]
O=C(O)C(=O)CBr [bromopyruvate, 3-bromopyruvate]	120	
O=C(O)CC[N+](=O)[O-] [3-nitropropionate]		3
